The record followed here is US20080207669A1, “(S)-N-Stereoisomers of 7,8-Saturated-4,5-Epoxy-Morphinanium Analogs” (Progenics Pharmaceuticals, Inc., priority 2006, published 2008).

Assay [1] addresses T1, μ-opioid receptors in the guinea pig ileum (Cavia porcellus, UniProt A0ACM8Q262). Kind of assay: Field-stimulated guinea pig ileum, evaluation of agonist activity. To be noted: for activation at 100 µM: 1.0E-04 M; for activation at 10 µM: 1.0E-05 M; for activation at 0.1 µM: 1.0E-07 M; for activation at 0.01 µM: 1.0E-08 M; for activation at 30 µM: 3.0E-05 M; for activation at 3 µM: 3.0E-06 M; for activation at 0.3 µM: 3.0E-07 M; for activation at 0.03 µM: 3.0E-08 M; for Response to compound + Naloxone, percent of the control response to DAMGO: compound 1.0E-04 M + Naloxone 1.0E-07 M; for activation at 1 µM: 1.0E-06 M. As for the experimental part:
(§1) In Vitro Pharmacology of (S)-7,8-saturated-4,5α-epoxy-morphinaniums on μ receptor. Mμ-receptor agonist/antagonist activity may be adjudged by use of field-stimulated guinea pig ileum by methods known in the art. For example, segments of guinea pig terminal ileum may be suspended in 20-ml organ baths filled with an oxygenated (95% O2 and 5% CO2) and pre-warmed (37° C.) physiological salt solution of the following composition (in mM): NaCl 118.0, KCl 4.7, MgSO4 1.2, CaCl2 2.5, KH2PO4 1.2, NaHCO3 25.0 and glucose 11.0 (pH 7.4). Additional experimental conditions that may be followed are described in Hutchinson et al. (1975) Brit. J. Pharmacol., 55:541-546.
(§2) Indomethacin (1 μM), nor-binaltorphimine (0.01 μM), methysergide (1 μM), ondansetron (10 μM) and GR113808 (0.1 μM) may be also present throughout an experiment to prevent prostanoid release and to block the k-opioid, 5-HT2, 5-HT3 and 5-HT4 receptors, respectively. The tissues in such tests are typically connected to force transducers for isometric tension recordings. The tissue may be stretched to a resting tension, for example, of 1 g then allowed to equilibrate, for example, about 60 min during which time they may be washed repeatedly and the tension readjusted. Electrical stimulation with pulses of minimal intensity to trigger maximal contractions and a short duration, for example, 1 ms duration, delivered by a constant current stimulator at a frequency such a 0.1 Hz.
Exemplar Test for Agonist Activity. The tissues may be exposed to a submaximal concentration of the reference agonist DAMGO (0.1 μM) to verify responsiveness and to obtain a control response. Following extensive washings and recovery of the control twitch contractions, the tissues may be exposed to increasing concentrations of the (S)-7,8-saturated-4,5-epoxy-morphinanium or the same agonist. The different concentrations may be added cumulatively and each left in contact with the tissues until a stable response is obtained or for a maximum of 15 min.

Assay [2] has as its target T1, μ-opioid receptors in the guinea pig ileum. Kind of assay: Field-stimulated guinea pig ileum, evaluation of antagonist activity against DAMGO. The note with it: for remaining activity at 100 µM / remaining activity at 10 µM / remaining activity at 1 µM / remaining activity at 0.1 µM / remaining activity at 0.01 µM / remaining activity at 30 µM / remaining activity at 3 µM / remaining activity at 0.3 µM / remaining activity at 0.03 µM: guinea pig, mean, n=2, read-out: Response to DAMGO (1.0E-07 M) in the presence of the compound, percent of the control response to DAMGO; for remaining activity at 100 µM: compound 1.0E-04 M; for remaining activity at 10 µM: compound 1.0E-05 M; for remaining activity at 1 µM: compound 1.0E-06 M; for remaining activity at 0.1 µM: compound 1.0E-07 M; for remaining activity at 0.01 µM: compound 1.0E-08 M; for remaining activity at 30 µM: compound 3.0E-05 M; for remaining activity at 3 µM: compound 3.0E-06 M; for remaining activity at 0.3 µM: compound 3.0E-07 M; for remaining activity at 0.03 µM: compound 3.0E-08 M; for Antagonist activity IC50 value: inhibition of the response to DAMGO, guinea pig ileum. The procedure: as §1, §2
Exemplary Test for Antagonist Activity. The tissues may be exposed to a submaximal concentration of the reference agonist DAMGO (0.1 μM) to obtain a control response. […] Each concentration may be left in contact with the tissues until a stable response is obtained or for a maximum time, such as 15 min. The maximum change in the amplitude of the electrically-evoked twitch contractions induced by each compound concentration may be measured. […] The EC50 value (concentration producing a half-maximum response) or IC50 value (concentration causing a half-maximum inhibition of the response to DAMGO) may be determined by linear regression analysis of the concentration-response curves. Inhibition of the DAMGO-induced response by the (S)-7,8-saturated-4,5-epoxy-morphinanium may indicate an antagonist activity at the μ receptors.

The next assay has as its target μ receptors (Homo sapiens, UniProt P35372). Description: Opiate receptor radioligand binding, competition with diprenorphine, naltrexone control. The note with it: compared to naltrexone control; test concentration not given. The source says:
Opiate Receptor Binding of (S)-7,8-saturated-4,5α-epoxy-morphinaniums. Radioligand binding assays may be conducted to determine the binding specificity of an (S)-7,8-saturated-4,5-epoxy-morphinanium for μ-, κ-, and δ-opiate receptors using methods adapted from scientific literature (Simonin, F et al 1994, Mol. Pharmacol. 46:1015-1021; Maguire, P. et al 1992, Eur. J. Pharmacol. 213:219-225; Simonin, F. et al PNAS USA 92(15):1431-1437; Wang, J B 1994, FEBS Lett 338:217-222). For example, a membrane may be associated with human opioid receptor material. Diprenorphine which has an affinity for all […] opioid receptors, can be used as a competitive challenge to the test compound. Membranes can then be separated, and the binding of the test compounds to the receptor material can be determined by scintillation counting. A control, such as naltrexone, can be used to determine relative binding affinity.

Where [3] appears, read: mean, n=2, read-out: Response to compound (decrease in twitch contraction amplitude), percent of the control response to DAMGO.

T1 sequence (A0ACM8Q262 1-400): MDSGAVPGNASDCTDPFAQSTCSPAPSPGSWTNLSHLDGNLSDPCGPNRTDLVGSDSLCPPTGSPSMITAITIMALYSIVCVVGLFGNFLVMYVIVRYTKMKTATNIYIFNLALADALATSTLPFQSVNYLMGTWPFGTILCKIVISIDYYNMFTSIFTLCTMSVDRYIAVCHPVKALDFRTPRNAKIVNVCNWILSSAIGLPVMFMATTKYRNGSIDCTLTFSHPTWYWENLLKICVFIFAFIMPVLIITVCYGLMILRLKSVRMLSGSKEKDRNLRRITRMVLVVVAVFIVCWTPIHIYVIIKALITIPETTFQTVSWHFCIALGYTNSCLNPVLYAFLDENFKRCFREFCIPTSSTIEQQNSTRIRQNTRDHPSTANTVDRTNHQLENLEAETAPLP
Sequence of μ receptors (P35372 whole entry): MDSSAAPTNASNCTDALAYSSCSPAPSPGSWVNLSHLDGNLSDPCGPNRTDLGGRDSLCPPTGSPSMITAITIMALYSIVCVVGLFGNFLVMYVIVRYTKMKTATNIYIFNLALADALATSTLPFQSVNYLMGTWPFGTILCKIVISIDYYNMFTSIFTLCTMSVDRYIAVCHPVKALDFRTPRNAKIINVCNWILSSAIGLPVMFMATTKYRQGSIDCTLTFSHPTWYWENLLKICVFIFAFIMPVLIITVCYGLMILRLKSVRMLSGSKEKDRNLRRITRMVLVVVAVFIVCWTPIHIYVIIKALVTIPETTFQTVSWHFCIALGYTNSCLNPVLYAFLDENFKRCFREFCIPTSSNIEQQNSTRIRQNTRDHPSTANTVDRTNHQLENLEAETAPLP

`CC(C)=CC[N+]1(C)CC[C@]23c4c5ccc(O)c4O[C@H]2C(=O)CC[C@@]3(O)[C@H]1C5.[I-]` (stereo partly drawn) [(S)-DMAM, (S)-17-(3,3-dimethylallyl)-4,5α-epoxy-3,14-di-hydroxy-17-methyl-6-oxomorphinanium iodide]: in assay [1] (setting [3]), the activation at 100 µM worked out at 101%, the activation at 10 µM was 93%, the activation at 0.1 µM was found to be 8% and the activation at 0.01 µM was 0%. In addition, in assay [1] (setting [3]), the activation at 30 µM is 99%, the activation at 3 µM turned out to be 77%, the activation at 0.3 µM stood at 19% and the activation at 0.03 µM is 0%. Besides, in assay [1] (mean, n=2), the “Response to compound + Naloxone, percent of the control response to DAMGO” value is 77%. In addition, the EC50 (usually the concentration that produces a half-maximal response) in assay [1] (read-out: Agonist activity EC50 value, concentration producing a half-maximum response, guinea pig ileum) was determined as 1.3 µM. Also, in assay [2], the remaining activity at 100 µM turned out to be 113%, the remaining activity at 10 µM was found to be 110%, the remaining activity at 1 µM came to 101% and the remaining activity at 0.1 µM turned out to be 100%. Moreover, in assay [2], the remaining activity at 0.01 µM was 100%, the remaining activity at 30 µM turned out to be 113%, the remaining activity at 3 µM stood at 105% and the remaining activity at 0.3 µM amounted to 100%. For the same compound, in assay [2], the remaining activity at 0.03 µM is 100% and the “Antagonist activity IC50 value” was “No antagonist activity”.

Consider `C[C@@H](NC(=O)[C@@H](N)Cc1ccc(O)cc1)C(=O)NCC(=O)N(C)[C@@H](Cc1ccccc1)C(=O)NCCO` [DAMGO, reference compound], for which, in assay [1] (setting [3]), the activation at 1 µM was 103%, the activation at 0.1 µM came to 96% and the activation at 0.01 µM was 57%. In addition, the activation at 0.001 µM in assay [1] (1.0E-09 M, mean, n=2, read-out: Response to compound (decrease in twitch contraction amplitude), percent of the control response to DAMGO) is 9%. Further, in assay [1] (highest DAMGO concentration + Naloxone 1.0E-07 M, mean, n=2), the “Response to DAMGO + Naloxone, percent of the control response to DAMGO” value came out at 4%.

Regarding `C[N+]1(CC#Cc2ccccc2)CC[C@]23c4c5ccc(O)c4O[C@H]2C(=O)CC[C@@]3(O)[C@H]1C5` (stereo partly drawn) [(S)-PM], at μ receptors, the “inhibition of control specific binding at the μ receptor” value (“inhibition of control specific binding” for short) was found to be 80%. In addition, in assay [1] (setting [3]), the activation at 100 µM turned out to be 89%, the activation at 10 µM came to 53%, the activation at 1 µM came to 25% and the activation at 0.1 µM came to 6%. Further, in assay [1] (setting [3]), the activation at 0.01 µM is 0%, the activation at 30 µM was 71%, the activation at 3 µM was 38% and the activation at 0.3 µM was determined as 12%. Besides, the activation at 0.03 µM in assay [1] (setting [3]) was 0%. Also, the “Response to compound + Naloxone, percent of the control response to DAMGO” value in assay [1] (mean, n=2) is recorded as 30%. In assay [2], the remaining activity at 100 µM is 110%, the remaining activity at 10 µM came out at 100%, the remaining activity at 1 µM was determined as 100% and the remaining activity at 0.1 µM was found to be 100%. Besides, in assay [2], the remaining activity at 0.01 µM worked out at 100%, the remaining activity at 30 µM came to 100%, the remaining activity at 3 µM was 100% and the remaining activity at 0.3 µM came to 100%. Further, in assay [2], the remaining activity at 0.03 µM amounted to 100% and the “Antagonist activity IC50 value” was “No antagonist activity”.

Regarding `C=CC[N+]1(CC2CC2)CC[C@]23c4c5ccc(O)c4O[C@H]2C(=O)CC[C@@]3(O)[C@H]1C5` (stereo partly drawn) [(S)-17-Allyl-17-cyclopropylmethyl-4,5α-epoxy-3,14-di-hydroxy-6-oxomorphinanium Iodide], the “inhibition of control specific binding” value at μ receptors is listed as 68%.

In the case of `CC(C)=CC[N+]1(C)CC[C@]23c4c5ccc(O)c4O[C@H]2C(=O)CC[C@@]3(O)[C@H]1C5.[I-]` (stereo partly drawn) [(S)-17-(3,3-dimethylallyl)-4,5α-epoxy-3,14-di-hydroxy-17-methyl-6-oxomorphinanium iodide], on μ receptors, the “inhibition of control specific binding” value turned out to be 65%.
